Measurements reported in patent publication US9181239B2, “Pyridopyrimidinone inhibitors of kinases” (AbbVie Inc., priority 2011, dated 2015).

Biological target: T1, Wee1 kinase (Homo sapiens, UniProt P30291)
T1 construct: purchased Carnabio 05-177
Assay: Wee1 time-resolved fluorescence equilibrium binding assay (probe displacement)
Settings: GST-tagged-Wee1 kinase 2 nM, fluorescent probe 300 nM, 1 hour incubation; read-out: Wee-1 binding (Ki nM)
Method: Wee1 kinase was assayed using a time-resolved fluorescence equilibrium binding assay monitoring displacement of a rapidly reversible Oregon Green-labeled ATP-competitive kinase probe (N-(2-(2-(2-(4-(4-(5-chloro-4-(2-(1-hydroxycyclobutyl)thiazol-5-yl)-1H-pyrrolo[2,3-b]pyridin-2-yl)phenyl)piperazin-1-yl)ethoxy)ethoxy)ethyl)-2′,7′-difluoro-3′,6′-dihydroxy-3-oxo-3H-spiro[isobenzofuran-1,9′-xanthene]-5-carboxamide) by competitive Wee1 inhibitors.

T1 sequence (P30291 whole entry): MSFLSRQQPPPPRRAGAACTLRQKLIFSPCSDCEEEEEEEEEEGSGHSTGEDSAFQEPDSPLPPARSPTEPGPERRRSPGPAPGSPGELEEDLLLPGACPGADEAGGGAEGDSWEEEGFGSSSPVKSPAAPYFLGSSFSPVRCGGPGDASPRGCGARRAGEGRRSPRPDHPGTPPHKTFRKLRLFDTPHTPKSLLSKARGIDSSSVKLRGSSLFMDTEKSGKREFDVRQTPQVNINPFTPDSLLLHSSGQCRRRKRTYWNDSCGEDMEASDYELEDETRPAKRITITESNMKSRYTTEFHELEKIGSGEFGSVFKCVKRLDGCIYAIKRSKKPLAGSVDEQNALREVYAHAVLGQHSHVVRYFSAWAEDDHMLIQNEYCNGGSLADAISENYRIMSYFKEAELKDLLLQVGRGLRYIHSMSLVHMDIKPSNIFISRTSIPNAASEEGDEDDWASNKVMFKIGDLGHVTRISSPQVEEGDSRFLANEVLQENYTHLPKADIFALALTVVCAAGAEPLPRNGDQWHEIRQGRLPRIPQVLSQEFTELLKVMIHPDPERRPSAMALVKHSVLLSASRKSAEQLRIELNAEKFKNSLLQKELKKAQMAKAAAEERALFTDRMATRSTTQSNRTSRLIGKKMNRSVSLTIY

SMILES	Ki [nM]
CCn1cc(-c2c(Cl)cccc2Cl)c(=O)c2cnc(Nc3ccc(N4CCN(C)CC4)cc3)nc21 [Example 31, 6-(2,6-dichlorophenyl)-8-ethyl-2-{[4-(4-methylpiperazin-1-yl)phenyl]amino}pyrido[2,3-d]pyrimidin-5(8H)-one]	0.6
CN1CCN(c2ccc(Nc3ncc4c(=O)c(-c5c(F)cccc5Cl)cn(C)c4n3)cc2)CC1 [Example 33, 6-(2-chloro-6-fluorophenyl)-8-methyl-2-{[4-(4-methylpiperazin-1-yl)phenyl]amino}pyrido[2,3-d]pyrimidin-5(8H)-one]	1.5
COc1ccc(Cn2cc(-c3c(F)cccc3Cl)c(=O)c3cnc(Nc4ccc(N5CCN(C)CC5)cc4)nc32)cc1 [Example 35, 6-(2-chloro-6-fluorophenyl)-8-(4-methoxybenzyl)-2-{[4-(4-methylpiperazin-1-yl)phenyl]amino}pyrido[2,3-d]pyrimidin-5(8H)-one]	66
COc1ccc(Cn2cc(-c3c(F)cccc3Cl)c(=O)c3cnc(Nc4ccc5c(c4)CN(C)CC54CC4)nc32)cc1 [Example 36, 6-(2-chloro-6-fluorophenyl)-8-(4-methoxybenzyl)-2-[(2′-methyl-2′,3′-dihydro-1′H-spiro[cyclopropane-1,4′-isoquinolin]-7′-yl)amino]pyrido[2,3-d]pyrimidin-5(8H)-one]	33
CN1CCN(c2ccc(Nc3ncc4c(=O)c(-c5c(F)cccc5Cl)cn(C5CC5)c4n3)cc2)CC1 [Example 37, 6-(2-chloro-6-fluorophenyl)-8-cyclopropyl-2-{[4-(4-methylpiperazin-1-yl)phenyl]amino}pyrido[2,3-d]pyrimidin-5(8H)-one]	2.4
CN1Cc2cc(Nc3ncc4c(=O)c(-c5c(F)cccc5Cl)cn(C5CC5)c4n3)ccc2C2(CC2)C1 [Example 38, 6-(2-chloro-6-fluorophenyl)-8-cyclopropyl-2-[(2′-methyl-2′,3′-dihydro-1′H-spiro[cyclopropane-1,4′-isoquinolin]-7′-yl)amino]pyrido[2,3-d]pyrimidin-5(8H)-one]	1.3
CN1Cc2cc(Nc3ncc4c(=O)c(-c5c(F)cccc5Cl)c[nH]c4n3)ccc2C2(CC2)C1 [Example 39, 6-(2-chloro-6-fluorophenyl)-2-[(2′-methyl-2′,3′-dihydro-1′H-spiro[cyclopropane-1,4′-isoquinolin]-7′-yl)amino]pyrido[2,3-d]pyrimidin-5(8H)-one]	0.7
CN1CCN(c2ccc(Nc3ncc4c(=O)c(-c5c(F)cccc5Cl)c[nH]c4n3)cc2)CC1 [Example 40, 6-(2-chloro-6-fluorophenyl)-2-{[4-(4-methylpiperazin-1-yl)phenyl]amino}pyrido[2,3-d]pyrimidin-5(8H)-one]	2.4
CN(C)C1Cc2ccc(Nc3ncc4c(=O)c(-c5c(Cl)cccc5Cl)c[nH]c4n3)cc2C1 (stereo not shown) [Example 41, 6-(2,6-dichlorophenyl)-2-{[2-(dimethylamino)-2,3-dihydro-1H-inden-5-yl]amino}pyrido[2,3-d]pyrimidin-5(8H)-one]	0.4
CN1Cc2cc(Nc3ncc4c(=O)c(-c5c(Cl)cccc5Cl)c[nH]c4n3)ccc2C(C)(C)C1 [Example 42, 6-(2,6-dichlorophenyl)-2-[(2,4,4-trimethyl-1,2,3,4-tetrahydroisoquinolin-7-yl)amino]pyrido[2,3-d]pyrimidin-5(8H)-one]	0.2
O=c1c(-c2c(Cl)cccc2Cl)c[nH]c2nc(Nc3ccc4c(c3)CNCC43CC3)ncc12 [Example 43, 6-(2,6-dichlorophenyl)-2-(2′,3′-dihydro-1′H-spiro[cyclopropane-1,4′-isoquinolin]-7′-ylamino)pyrido[2,3-d]pyrimidin-5(8H)-one]	0.3
CN(C)C1CCN(c2ccc(Nc3ncc4c(=O)c(-c5c(Cl)cccc5Cl)cn(C)c4n3)cc2)CC1 [Example 44, 6-(2,6-dichlorophenyl)-2-({4-[4-(dimethylamino)piperidin-1-yl]phenyl}amino)-8-methylpyrido[2,3-d]pyrimidin-5(8H)-one]	0.5
Cn1cc(-c2c(Cl)cccc2Cl)c(=O)c2cnc(N)nc21 [Example 45, 2-amino-6-(2,6-dichlorophenyl)-8-methylpyrido[2,3-d]pyrimidin-5(8H)-one]	180
CN1CCN(c2ncc(Nc3ncc4c(=O)c(-c5c(Cl)cccc5Cl)cn(C)c4n3)cn2)CC1 [Example 59, 6-(2,6-dichlorophenyl)-8-methyl-2-{[2-(4-methylpiperazin-1-yl)pyrimidin-5-yl]amino}pyrido[2,3-d]pyrimidin-5(8H)-one]	18
CN1CCC(Nc2ccc(Nc3ncc4c(=O)c(-c5c(Cl)cccc5Cl)cn(C)c4n3)cc2)CC1 [Example 61, 6-(2,6-dichlorophenyl)-8-methyl-2-({4-[(1-methylpiperidin-4-yl)amino]phenyl}amino)pyrido[2,3-d]pyrimidin-5(8H)-one]	0.6
CN(C)C1CCN(c2ncc(Nc3ncc4c(=O)c(-c5c(Cl)cccc5Cl)cn(C)c4n3)cn2)CC1 [Example 62, 6-(2,6-dichlorophenyl)-2-({2-[4-(dimethylamino)piperidin-1-yl]pyrimidin-5-yl}amino)-8-methylpyrido[2,3-d]pyrimidin-5(8H)-one]	3

Next, values leading:

Ki [nM]	SMILES
0.3	CCn1cc(-c2c(Cl)cccc2Cl)c(=O)c2cnc(Nc3ccc4c(c3)CN(C)CC43CC3)nc21 [Example 32, 6-(2,6-dichlorophenyl)-8-ethyl-2-[(2′-methyl-2′,3′-dihydro-1′H-spiro[cyclopropane-1,4′-isoquinolin]-7′-yl)amino]pyrido[2,3-d]pyrimidin-5(8H)-one]
0.4	CN1Cc2cc(Nc3ncc4c(=O)c(-c5c(F)cccc5Cl)cn(C)c4n3)ccc2C2(CC2)C1 [Example 34, 6-(2-chloro-6-fluorophenyl)-8-methyl-2-[(2′-methyl-2′,3′-dihydro-1′H-spiro[cyclopropane-1,4′-isoquinolin]-7′-yl)amino]pyrido[2,3-d]pyrimidin-5(8H)-one]
1.1	Cn1cc(-c2c(Cl)cccc2Cl)c(=O)c2cnc(Nc3ccc4c(c3)CCNC4)nc21 [Example 46, 6-(2,6-dichlorophenyl)-8-methyl-2-(1,2,3,4-tetrahydroisoquinolin-6-ylamino)pyrido[2,3-d]pyrimidin-5(8H)-one]
0.6	Cn1cc(-c2c(Cl)cccc2Cl)c(=O)c2cnc(Nc3ccc4c(c3)CNCC4(C)C)nc21 [Example 47, 6-(2,6-dichlorophenyl)-2-[(4,4-dimethyl-1,2,3,4-tetrahydroisoquinolin-7-yl)amino]-8-methylpyrido[2,3-d]pyrimidin-5(8H)-one]
1.7	Cn1cc(-c2c(Cl)cccc2Cl)c(=O)c2cnc(Nc3ccc(N4CCOCC4)cc3)nc21 [Example 48, 6-(2,6-dichlorophenyl)-8-methyl-2-{[4-(morpholin-4-yl)phenyl]amino}pyrido[2,3-d]pyrimidin-5(8H)-one]
0.8	Cn1cc(-c2c(Cl)cccc2Cl)c(=O)c2cnc(Nc3ccc4c(c3)CNC4)nc21 [Example 49, 6-(2,6-dichlorophenyl)-2-(2,3-dihydro-1H-isoindol-5-ylamino)-8-methylpyrido[2,3-d]pyrimidin-5(8H)-one]
0.9	CN1CCC(c2ccc(Nc3ncc4c(=O)c(-c5c(Cl)cccc5Cl)cn(C)c4n3)cc2)CC1 [Example 50, 6-(2,6-dichlorophenyl)-8-methyl-2-{[4-(1-methylpiperidin-4-yl)phenyl]amino}pyrido[2,3-d]pyrimidin-5(8H)-one]
0.4	Cn1cc(-c2c(Cl)cccc2Cl)c(=O)c2cnc(Nc3ccc4c(c3)CNCC4)nc21 [Example 51, 6-(2,6-dichlorophenyl)-8-methyl-2-(1,2,3,4-tetrahydroisoquinolin-7-ylamino)pyrido[2,3-d]pyrimidin-5(8H)-one]
0.5	CN1CCc2ccc(Nc3ncc4c(=O)c(-c5c(Cl)cccc5Cl)cn(C)c4n3)cc2C1 [Example 52, 6-(2,6-dichlorophenyl)-8-methyl-2-[(2-methyl-1,2,3,4-tetrahydroisoquinolin-7-yl)amino]pyrido[2,3-d]pyrimidin-5(8H)-one]
0.3	CN1CCc2cc(Nc3ncc4c(=O)c(-c5c(Cl)cccc5Cl)cn(C)c4n3)ccc2C1 [Example 54, 6-(2,6-dichlorophenyl)-8-methyl-2-[(2-methyl-1,2,3,4-tetrahydroisoquinolin-6-yl)amino]pyrido[2,3-d]pyrimidin-5(8H)-one]
0.4	Cn1cc(-c2c(Cl)cccc2Cl)c(=O)c2cnc(Nc3ccc4c(c3)CC(N3CCCC3)C4)nc21 (stereo not shown) [Example 55, 6-(2,6-dichlorophenyl)-8-methyl-2-{[2-(pyrrolidin-1-yl)-2,3-dihydro-1H-inden-5-yl]amino}pyrido[2,3-d]pyrimidin-5(8H)-one]
27	Cn1cc(-c2c(Cl)cccc2Cl)c(=O)c2cnc(Nc3ccc4c(c3)C(=O)NC4=O)nc21 [Example 56, 5-{[6-(2,6-dichlorophenyl)-8-methyl-5-oxo-5,8-dihydropyrido[2,3-d]pyrimidin-2-yl]amino}-1H-isoindole-1,3(2H)-dione]
0.9	CN1CCN(C2Cc3ccc(Nc4ncc5c(=O)c(-c6c(Cl)cccc6Cl)cn(C)c5n4)cc3C2)CC1 (stereo not shown) [Example 57, 6-(2,6-dichlorophenyl)-8-methyl-2-{[2-(4-methylpiperazin-1-yl)-2,3-dihydro-1H-inden-5-yl]amino}pyrido[2,3-d]pyrimidin-5(8H)-one]
0.4	Cn1cc(-c2c(Cl)cccc2Cl)c(=O)c2cnc(Nc3cc4c(s3)CCNC4)nc21 [Example 58, 6-(2,6-dichlorophenyl)-8-methyl-2-(4,5,6,7-tetrahydrothieno[3,2-c]pyridin-2-ylamino)pyrido[2,3-d]pyrimidin-5(8H)-one]
0.2	CN1Cc2cc(Nc3ncc4c(=O)c(-c5c(Cl)cccc5Cl)cn(C)c4n3)ccc2C1(C)C [Example 60, 6-(2,6-dichlorophenyl)-8-methyl-2-[(1,1,2-trimethyl-2,3-dihydro-1H-isoindol-5-yl)amino]pyrido[2,3-d]pyrimidin-5(8H)-one]
